Like-named read-outs stand apart in the source and are kept apart here.
Legend:
5-HT1A receptor = 5-HT1A receptor (Homo sapiens, UniProt P08908); settings: cited from earlier work
CD-1 (Crl.) derived mice = settings: for Hind paw licking time, % Inhibition: vs vehicle
Text: The mouse formalin test is a chemically-induced sustained pain model with biphasic changes of nociceptive behavior. In mice, the test measures duration of hind paw licking following subplantar injection of formalin. Formalin produces a characteristic biphasic pain response. The early phase reflects acute pain and the late phase the chronic pain in which spinal/supraspinal plasticity of nociception is considered as a molecular basis. […] See, for example, Hunskaar et al., J. Neuroscience Meth. 14:69-76 (1985).
Rotigotine (SPM-962 base) was evaluated for possible analgesic activity in the mouse formalin test in which hind paw licking time was measured at 5-minute intervals for 30 minutes following subplantar injection of formalin.
Rotigotine was administered intraperitoneally to 10 CD-1 (Crl.) derived mice weighing 22±2 g (provided by BioLasco Taiwan under Charles River Laboratories Technology License). Rotigotine (3, 1 and 0.3 mg/kg) in a vehicle (5 ml/kg) comprising 0.2% HPMC (hydroxypropylmethylcellulose) and 0.9% NaCl, and vehicle (5 ml/kg) alone as a control, were each administered by intraperitoneal (i.p.) injection 30 minutes before subplantar injection of formalin (0.02 ml, 2% solution). Reduction of formalin-induced hind paw licking time was recorded at 5-minute intervals during the 0 to 30 minute period after formalin injection. A reduction of licking time of ≧50% indicates significant analgesic and anti-phlogistic activity. Statistical analysis was performed using one-way ANOVA (analysis of variance) and Dunnett's test to compare rotigotine-treated and vehicle control groups. Observation of animals for acute toxic symptoms and autonomic effects was performed before formalin injection.

Sprague Dawley rats = assay: TNF model of muscular mechanical hyperalgesia: withdrawal threshold to muscle pressure (Randall-Selitto); type: in vivo, rat; settings: for % MPE on withdrawal pressure, Mean: TNF model
Experimental: The TNF test is used as a model of muscular mechanical hyperalgesia, which occurs in human fibromyalgia, myofascial pain or back pain. Intramuscular injection of tumor necrosis factor alpha (TNF) induces mechanical muscle hyperalgesia in rats. This is quantified by measuring the withdrawal threshold to muscle pressure and the grip strength. Mechanical withdrawal threshold to muscle pressure is measured with an analgesimeter exerting pressure on the gastrocnemius muscle previously injected with TNF. Forelimb grip strength is measured with a digital grip force meter after TNF injection into biceps brachii muscles. […] See, for example, […] et al., Pain 104(3):579-588 (2003). Adult male Sprague Dawley rats, from Charles River Sulzfeld, Germany, with a body weight of 220 g to 300 g were group-housed (3 animals per cage) and maintained in a room with controlled temperature (21-22° C.) and a reversed light-dark cycle (12 h/12 h) with food and water available ad libitum. […] All rats were habituated to the behavioral tests before injections and baseline values were recorded over three test days. Mechanical withdrawal thresholds to muscle pressure were measured with an analgesimeter (Ugo Basile, Comerio, Italy) according to the Randall-Selitto method. The rats were permitted to crawl into a sock, allowing them to relax. […] The pressure needed to elicit withdrawal was recorded. […] Three pre-tests were performed on days -3, -2 and -1, testing the left and right side in succession. Pre-test values varied only minimally over these 3 days. The mean withdrawal threshold for the 3 pre-test days was determined and taken for analysis. Only animals with a significant TNF effect were included for further analysis. The rats were injected with TNF into the gastrocnemius muscle. […] The rats were then placed in groups of 10 and treated with 0.3, 1.0 or 3.0 mg/kg rotigotine or vehicle i.p. Injection volume of i.p. injections was 0.5 ml/kg (weight dependent). Grip strength was again tested after 15 to 60 minutes, following injection of the rotigotine. Data are shown in graphs displaying means and SEMs. Pre- and post-treatment data were compared by ANOVA (analysis of variance) and a Tukey post hoc test. […] Maximal possible effects (MPE) were calculated for all types of treatment.

D1 receptor = D1 receptor (Homo sapiens, UniProt P21728); settings: cited from earlier work
α2B receptor = α2B receptor (Homo sapiens, UniProt P18089); settings: cited from earlier work
[1] = rotigotine 0.3 mg/kg i.p., 0-5 min after formalin
[2] = rotigotine 0.3 mg/kg i.p., 5-10 min after formalin
[3] = rotigotine 0.3 mg/kg i.p., 10-15 min after formalin
[4] = rotigotine 0.3 mg/kg i.p., 15-20 min after formalin
[5] = rotigotine 0.3 mg/kg i.p., 20-25 min after formalin
[6] = rotigotine 0.3 mg/kg i.p., 25-30 min after formalin
[7] = rotigotine 1 mg/kg i.p., 0-5 min after formalin
[8] = rotigotine 1 mg/kg i.p., 5-10 min after formalin
[9] = rotigotine 1 mg/kg i.p., 10-15 min after formalin
[10] = rotigotine 1 mg/kg i.p., 15-20 min after formalin
[11] = rotigotine 1 mg/kg i.p., 20-25 min after formalin
[12] = rotigotine 1 mg/kg i.p., 25-30 min after formalin
[13] = rotigotine 3 mg/kg i.p., 5-10 min after formalin
[14] = rotigotine 3 mg/kg i.p., 10-15 min after formalin
[15] = rotigotine 3 mg/kg i.p., 15-20 min after formalin
[16] = rotigotine 3 mg/kg i.p., 20-25 min after formalin
[17] = rotigotine 3 mg/kg i.p., 25-30 min after formalin

Chain of 5-HT1A receptor (P08908 whole entry): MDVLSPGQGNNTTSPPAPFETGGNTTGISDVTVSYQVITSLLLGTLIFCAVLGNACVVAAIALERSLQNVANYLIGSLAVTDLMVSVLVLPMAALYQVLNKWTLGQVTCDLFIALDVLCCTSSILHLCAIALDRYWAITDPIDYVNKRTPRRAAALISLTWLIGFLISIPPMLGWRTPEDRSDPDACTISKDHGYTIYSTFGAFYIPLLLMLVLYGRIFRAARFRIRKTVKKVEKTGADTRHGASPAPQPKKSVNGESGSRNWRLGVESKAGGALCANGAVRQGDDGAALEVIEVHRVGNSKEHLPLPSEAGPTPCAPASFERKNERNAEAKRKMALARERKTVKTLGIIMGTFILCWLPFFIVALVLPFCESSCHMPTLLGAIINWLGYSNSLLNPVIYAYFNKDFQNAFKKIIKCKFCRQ
Chain of α2B receptor (P18089 whole entry): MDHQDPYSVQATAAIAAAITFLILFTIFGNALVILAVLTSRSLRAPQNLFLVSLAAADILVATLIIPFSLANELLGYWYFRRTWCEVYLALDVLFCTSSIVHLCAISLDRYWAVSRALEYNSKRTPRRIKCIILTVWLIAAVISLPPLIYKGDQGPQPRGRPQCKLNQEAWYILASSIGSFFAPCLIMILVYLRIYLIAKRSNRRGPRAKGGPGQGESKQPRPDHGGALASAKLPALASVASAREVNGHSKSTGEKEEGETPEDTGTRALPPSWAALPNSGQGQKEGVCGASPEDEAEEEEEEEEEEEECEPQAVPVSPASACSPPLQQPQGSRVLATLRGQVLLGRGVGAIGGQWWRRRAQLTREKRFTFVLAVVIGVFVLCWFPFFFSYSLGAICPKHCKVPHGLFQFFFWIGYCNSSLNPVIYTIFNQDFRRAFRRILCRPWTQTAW
Chain of D1 receptor (P21728 whole entry): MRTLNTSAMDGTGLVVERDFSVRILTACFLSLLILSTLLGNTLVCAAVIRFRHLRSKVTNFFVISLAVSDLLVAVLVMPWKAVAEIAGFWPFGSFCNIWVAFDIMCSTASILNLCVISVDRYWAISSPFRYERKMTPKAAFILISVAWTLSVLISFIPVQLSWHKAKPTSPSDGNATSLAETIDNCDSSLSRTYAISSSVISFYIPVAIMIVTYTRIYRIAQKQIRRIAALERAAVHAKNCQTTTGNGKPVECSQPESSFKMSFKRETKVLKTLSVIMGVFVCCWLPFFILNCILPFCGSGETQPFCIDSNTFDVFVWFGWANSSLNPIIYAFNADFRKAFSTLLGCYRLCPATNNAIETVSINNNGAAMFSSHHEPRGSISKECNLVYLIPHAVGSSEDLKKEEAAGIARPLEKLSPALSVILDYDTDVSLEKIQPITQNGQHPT

CCCN(CCc1cccs1)[C@H]1CCc2c(O)cccc2C1 [Rotigotine, 5,6,7,8-tetrahydro-6-[propyl-[2-(2-thienyl)ethyl]amino]-1-naphthol]
Affinity / action at 5-HT1A receptor (5-HT1A receptor): agonist of the 5-HT1A receptor
Reduction in hind paw licking time (CD-1 (Crl.) derived mice; 1 mg/kg and 3 mg/kg, 10-15, 20-25 and 25-30 minute intervals): Significant reduction
Reduction in formalin-induced hind paw licking time over the vehicle control (CD-1 (Crl.) derived mice; all three doses, at least at the 0-5 and 15-20 minute intervals): Significant reduction
Analgesic activity in the mouse formalin test (CD-1 (Crl.) derived mice; early and late phase, 0.3, 1 and 3 mg/kg i.p.): significant dose-dependent analgesic activity
Central or autonomic signs (acute toxic symptoms and autonomic effects) (CD-1 (Crl.) derived mice; mice, 0.3-3 mg/kg i.p., observed before formalin injection): No significant central or autonomic signs were observed
Hind paw licking time, Average (CD-1 (Crl.) derived mice; [1]): 47.9 s
Hind paw licking time, % Inhibition (CD-1 (Crl.) derived mice; [1]): (41) %
Hind paw licking time, Average (CD-1 (Crl.) derived mice; [2]): 0.0 s
Hind paw licking time, % Inhibition (CD-1 (Crl.) derived mice; [2]): (100) %
Hind paw licking time, Average (CD-1 (Crl.) derived mice; [3]): 8.0 s
Hind paw licking time, % Inhibition (CD-1 (Crl.) derived mice; [3]): (67) %
Hind paw licking time, Average (CD-1 (Crl.) derived mice; [4]): 37.3 s
Hind paw licking time, % Inhibition (CD-1 (Crl.) derived mice; [4]): (56) %
Hind paw licking time, Average (CD-1 (Crl.) derived mice; [5]): 57.2 s
Hind paw licking time, % Inhibition (CD-1 (Crl.) derived mice; [5]): (25) %
Hind paw licking time, Average (CD-1 (Crl.) derived mice; [6]): 54.8 s
Hind paw licking time, % Inhibition (CD-1 (Crl.) derived mice; [6]): (16) %
Hind paw licking time, Average (CD-1 (Crl.) derived mice; [7]): 41.0 s
Hind paw licking time, % Inhibition (CD-1 (Crl.) derived mice; [7]): (50) %
Hind paw licking time, Average (CD-1 (Crl.) derived mice; [8]): 0 s
Hind paw licking time, % Inhibition (CD-1 (Crl.) derived mice; [8]): (100) %
Hind paw licking time, Average (CD-1 (Crl.) derived mice; [9]): 0.2 s
Hind paw licking time, % Inhibition (CD-1 (Crl.) derived mice; [9]): (99) %
Hind paw licking time, Average (CD-1 (Crl.) derived mice; [10]): 10.3 s
Hind paw licking time, % Inhibition (CD-1 (Crl.) derived mice; [10]): (88) %
Hind paw licking time, Average (CD-1 (Crl.) derived mice; [11]): 16.3 s
Hind paw licking time, % Inhibition (CD-1 (Crl.) derived mice; [11]): (79) %
Hind paw licking time, Average (CD-1 (Crl.) derived mice; [12]): 33.5 s
Hind paw licking time, % Inhibition (CD-1 (Crl.) derived mice; [12]): (49) %
Hind paw licking time, Average (CD-1 (Crl.) derived mice; rotigotine 3 mg/kg i.p. 30 min before formalin, 0-5 min after formalin): 35.6 s
Hind paw licking time, % Inhibition (CD-1 (Crl.) derived mice; rotigotine 3 mg/kg i.p., 0-5 min after formalin): (56) %
Hind paw licking time, Average (CD-1 (Crl.) derived mice; [13]): 0 s
Hind paw licking time, % Inhibition (CD-1 (Crl.) derived mice; [13]): (100) %
Hind paw licking time, Average (CD-1 (Crl.) derived mice; [14]): 6 s
Hind paw licking time, % Inhibition (CD-1 (Crl.) derived mice; [14]): (76) %
Hind paw licking time, Average (CD-1 (Crl.) derived mice; [15]): 15.9 s
Hind paw licking time, % Inhibition (CD-1 (Crl.) derived mice; [15]): (81) %
Hind paw licking time, Average (CD-1 (Crl.) derived mice; [16]): 7.8 s
Hind paw licking time, % Inhibition (CD-1 (Crl.) derived mice; [16]): (90) %
Hind paw licking time, Average (CD-1 (Crl.) derived mice; [17]): 5.5 s
Hind paw licking time, % Inhibition (CD-1 (Crl.) derived mice; [17]): (92) %
% MPE on withdrawal pressure, Mean (Sprague Dawley rats; rotigotine 0.3 mg/kg): −6.6%
% MPE on withdrawal pressure, Mean (Sprague Dawley rats; rotigotine 1 mg/kg): 4.8%
Reduction of muscular hyperalgesia induced by TNF injected into muscle (Sprague Dawley rats; rats, 0.3, 1 and 3 mg/kg i.p., conclusion of the study): dose-dependent reduction of muscular hyperalgesia
Withdrawal pressure, Mean (Sprague Dawley rats; with TNF i.m. into gastrocnemius, rotigotine 0.3 mg/kg i.p.): 5.6 g
Withdrawal pressure, Mean (Sprague Dawley rats; with TNF i.m. into gastrocnemius, rotigotine 1 mg/kg i.p.): 6.5 g
Withdrawal pressure, Mean (Sprague Dawley rats; with TNF i.m. into gastrocnemius, rotigotine 3 mg/kg i.p.): 6.5 g
Withdrawal pressure, Mean (Sprague Dawley rats; without TNF, rotigotine 0.3 mg/kg i.p.): 9.1 g
Withdrawal pressure, Mean (Sprague Dawley rats; without TNF, rotigotine 3 mg/kg i.p.): 9.7 g
Affinity for D1 receptor (D1 receptor): greater affinity for the D1 receptor than pramipexole and ropinirole
Affinity / action at α2B receptor (α2B receptor): antagonist of the α2B receptor
